Laboratory results taken from PubChem BioAssay AID1963827 (Molecular Pharmacology Branch, DTP, NCI, 2024).
Values joined by “and” are separate entries in the source; they are usually repeats but may differ in a detail not shown here. Equal values may be shown once.

Test system: 994946-033-R-J1-PDC complex spheroid viability
Assay: Anticancer human tumor 994946-033-R-J1-PDC patient-derived melanoma cell line growth inhibition [POLQ]
Details: for viability, T/C: stronger effect = lower value
Protocol: Multicellular complex tumor spheroid response to Polymerase (POL) inhibitors (novobiocin, ART-558, RP6685) in combination with a variety of drugs and investigational agents in selected tumor cell lines
The POL inhibitors (novobiocin, ART-558, and RP6685) were evaluated both individually and in combination with standard of care and investigational anticancer small molecules within a complex spheroid model of solid tumors. . Complex spheroids include a stromal component modeled by human endothelial cells (HUVEC) and fibroblasts modeled by human mesenchymal stem cells (MSCs). The concentration ranges selected for each drug and investigational agent were based upon clinically achievable concentrations if the clinical Cmax of the agent was known.
Compounds. The drugs and investigational agents: novobiocin (NSC847541), ART-558 (NSC835418), RP-6685 (NSC848927), peposertib (NSC802822), ceralasertib (NSC780249), elimusertib (NSC800525), camonsertib (NSC841442), AZD-1390 (NSC803789), olaparib (NSC753686), talazoparib (NSC767125), rucaparib (NSC756644), sotorasib (NSC818433), MRTX-1133 (NSC836407), SN-38 (NSC673596), topotecan (NSC609699), epotoside (NSC141540), doxorubicin (NSC123127), gemcitabine (NSC613327), 5-fluorouracil (NSC19893), paclitaxel (NSC125973), vemurafenib (NSC761431), MSA-2 (NSC828583), SN-011 (NSC837082), adavosertib (NSC754352), prexasertib (NSC758257), carboplatin (NSC241240) and oxaliplatin (NSC266046), were obtained from the National Cancer Institute (NCI) Developmental Therapeutics Program Chemical Repository (21). The FDA-approved anticancer drug set is available from the Developmental Therapeutics Program at https://dtp.cancer.gov/organization/dscb/obtaining/. […] The stock solutions were prepared in dimethyl sulfoxide (DMSO, Sigma-Aldrich, St. Louis, MO, cat. D2650), except for the platinum compounds which were prepared in saline (Quality Biological, Gaithersburg, MD, cat. 114-055-101), at 800-fold the tested concentration and stored at -70 degrees C prior to their use. All drugs and investigational agents were tested over a range starting from a high concentration at or near the clinical Cmax and decreasing in half-log increments. If the clinical Cmax for an agent had not been determined, the highest concentration tested was 10 microM, except for SN-38, which was tested at a high concentration of 1 microM.
Cell Culture. All cells were maintained in an incubator at 37 degrees C and 5% CO2 with 95% humidity. The PDC lines were cultured according to standard operating procedures established by the NCI PDMR (https://pdmr.cancer.gov). Table 3 of the manuscript, lists the cell lines along with the number of the three cell types plated to form the mct-spheroids and media for tumor cell growth. After thawing, all PDC lines, except 997537-175-T-J1-PDC and 415267-285-R-J2-PDC, were cultured in Matrigel-coated flasks prepared with a working solution of 1X Ham's F-12 nutrient mix, without supplementation (Thermo Fisher Scientific, cat. 11765054), 100 U/mL penicillin-streptomycin (Thermo Fisher Scientific, cat. 15140122), and 2.5% Matrigel (Corning Inc., Corning, NY, cat. 354248) for the first three passages. The two PDC lines 997537-175-T-J1-PDC and 415267-285-R-J2-PDC were cultured on uncoated flasks. The 857933-349-R-J2-PDC line was cultured in 6C/Colon 1B media containing advanced DMEM/F-12 (Thermo Fisher Scientific, cat. 12634028), 10 mM HEPES (Thermo Fisher Scientific, cat. 15630080), 1X GlutaMAX supplement (Thermo Fisher Scientific, cat. 35050061), 0.1 mg/mL primocin (InvivoGen, San Diego, CA, cat. ant-pm-2), 10% defined fetal bovine serum, heat inactivated (HyClone Laboratories Inc., Logan, UT, cat. SH30070.03HI), 50% L-WRN conditioned media (ATCC, cat. CRL-3276), 1.25 mM N-Acetyl-L-cysteine (Sigma-Aldrich, cat. A9165), 10 mM nicotinamide (Sigma-Aldrich, cat. N0636), 1X B-27 supplement (Thermo Fisher Scientific, cat. 17504044), 1X N-2 supplement (Thermo Fisher Scientific, cat. […]

[1] = curve of first compound, second compound 0.0316 µM
[2] = curve of first compound, second compound 0.1 µM
[3] = curve of first compound, second compound 0.316 µM
[4] = curve of first compound, second compound 1 µM
[5] = curve of first compound, second compound 3.16 µM
[6] = curve of first compound, second compound 10 µM
[7] = second compound 0.0316 µM, first compound 0.0316 µM
[8] = second compound 0.0316 µM, first compound 0.1 µM
[9] = second compound 0.0316 µM, first compound 0.316 µM
[10] = second compound 0.0316 µM, first compound 1 µM
[11] = second compound 0.0316 µM, first compound 3.16 µM
[12] = second compound 0.0316 µM, first compound 10 µM
[13] = second compound 0.1 µM, first compound 0.0316 µM
[14] = second compound 0.1 µM, first compound 0.1 µM
[15] = second compound 0.1 µM, first compound 0.316 µM
[16] = second compound 0.1 µM, first compound 1 µM
[17] = second compound 0.1 µM, first compound 3.16 µM
[18] = second compound 0.1 µM, first compound 10 µM
[19] = second compound 0.316 µM, first compound 0.0316 µM
[20] = second compound 0.316 µM, first compound 0.1 µM
[21] = second compound 0.316 µM, first compound 0.316 µM
[22] = second compound 0.316 µM, first compound 1 µM
[23] = second compound 0.316 µM, first compound 3.16 µM
[24] = second compound 0.316 µM, first compound 10 µM
[25] = second compound 1 µM, first compound 0.0316 µM
[26] = second compound 1 µM, first compound 0.1 µM
[27] = second compound 1 µM, first compound 0.316 µM
[28] = second compound 1 µM, first compound 1 µM
[29] = second compound 1 µM, first compound 3.16 µM
[30] = second compound 1 µM, first compound 10 µM
[31] = second compound 3.16 µM, first compound 0.0316 µM
[32] = second compound 3.16 µM, first compound 0.1 µM
[33] = second compound 3.16 µM, first compound 0.316 µM
[34] = second compound 3.16 µM, first compound 1 µM
[35] = second compound 3.16 µM, first compound 3.16 µM
[36] = second compound 3.16 µM, first compound 10 µM
[37] = second compound 10 µM, first compound 0.0316 µM
[38] = second compound 10 µM, first compound 0.1 µM
[39] = second compound 10 µM, first compound 0.316 µM
[40] = second compound 10 µM, first compound 1 µM
[41] = second compound 10 µM, first compound 3.16 µM
[42] = second compound 10 µM, first compound 10 µM
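Note: spheroids exposed to drugs for 7 days.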
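Throughout, for viability, T/C: 100% = DMSO vehicle treated spheroids.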

In the case of `CNCc1ccc(-c2[nH]c3cc(F)cc4c3c2CCNC4=O)cc1` + COC1C(OC(N)=O)C(O)C(Oc2ccc3c(O)c(NC(=O)c4ccc(O)c(CC=C(C)C)c4)c(=O)oc3c2C)OC1(C)C, the IC50 [1] is reported as > 10 µM, the IC50 [2] is reported as > 10 µM and the IC50 [3] is reported as > 10 µM. For the same molecule, the IC50 [4] was > 10 µM, the IC50 [5] was > 10 µM and the IC50 [6] was > 10 µM. For the same molecule, the viability, T/C [7] was 114%, the viability, T/C [8] was 93.7% and the viability, T/C [9] was 96%. The viability, T/C [10] was 96.3%, the viability, T/C [11] was 101% and the viability, T/C [12] was 70.9%. For the same molecule, the viability, T/C [13] was 107%, the viability, T/C [14] was 119% and the viability, T/C [15] was 83%. For the same molecule, the viability, T/C [16] was 114%, the viability, T/C [17] was 94.4% and the viability, T/C [18] was 93.3%. It also gave a viability, T/C [19] of 117%, a viability, T/C [20] of 126% and a viability, T/C [21] of 105%. It also gave a viability, T/C [22] of 117%, a viability, T/C [23] of 107% and a viability, T/C [24] of 61.1%. It also gave a viability, T/C [25] of 107%, a viability, T/C [26] of 91.4% and a viability, T/C [27] of 88.4%. For the same molecule, the viability, T/C [28] was 110%, the viability, T/C [29] was 109% and the viability, T/C [30] was 61.6%. For the same molecule, the viability, T/C [31] was 92.9%, the viability, T/C [32] was 95.2% and the viability, T/C [33] was 106%. The viability, T/C [34] was 112%, the viability, T/C [35] was 99.2% and the viability, T/C [36] was 72.8%. For the same molecule, the viability, T/C [37] was 117%, the viability, T/C [38] was 94.6% and the viability, T/C [39] was 80.3%. The viability, T/C [40] was 85.1%, the viability, T/C [41] was 94.5% and the viability, T/C [42] was 64.8%.
`C#Cc1c(F)ccc2cc(O)cc(-c3ncc4c(N5CC6CCC(C5)N6)nc(OCC56CCCN5CC(F)C6)nc4c3F)c12` (configuration not stated) + Cc1cccc(N(C)C(=O)C2C(O)CCN2c2nc(C)cc(C(F)(F)F)c2C#N)c1 was tested, and the IC50 [1] was 5.05 µM, the IC50 [2] was 7.26 µM and the IC50 [3] was 4.35 µM. For the same molecule, the IC50 [4] was 5.27 µM, the IC50 [5] was 4.78 µM and the IC50 [6] was 5.91 µM. The viability, T/C [7] was 97.6%, the viability, T/C [8] was 103% and the viability, T/C [9] was 101%. It also gave a viability, T/C [10] of 93.8%, a viability, T/C [11] of 76.5% and a viability, T/C [12] of 12%. It also gave a viability, T/C [13] of 77%, a viability, T/C [14] of 112% and a viability, T/C [15] of 101%. For the same molecule, the viability, T/C [16] was 106%, the viability, T/C [17] was 103% and the viability, T/C [18] was 30.7%. It also gave a viability, T/C [19] of 119%, a viability, T/C [20] of 102% and a viability, T/C [21] of 114%. For the same molecule, the viability, T/C [22] was 82%, the viability, T/C [23] was 64.7% and the viability, T/C [24] was 18.1%. The viability, T/C [25] was 121%, the viability, T/C [26] was 99.5% and the viability, T/C [27] was 105%. For the same molecule, the viability, T/C [28] was 107%, the viability, T/C [29] was 82.7% and the viability, T/C [30] was 9.05%. The viability, T/C [31] was 106%, the viability, T/C [32] was 95.3% and the viability, T/C [33] was 79.1%. The viability, T/C [34] was 82.8%, the viability, T/C [35] was 78.3% and the viability, T/C [36] was 5.59%. For the same molecule, the viability, T/C [37] was 111%, the viability, T/C [38] was 104% and the viability, T/C [39] was 97.7%. The viability, T/C [40] was 95.9%, the viability, T/C [41] was 114% and the viability, T/C [42] was 4.03%.
`C#Cc1c(F)ccc2cc(O)cc(-c3ncc4c(N5CC6CCC(C5)N6)nc(OCC56CCCN5CC(F)C6)nc4c3F)c12` (configuration not stated) was tested, and the viability, T/C (compound 0.0316 µM) was 78.6% and 88.4% and 92.6%, the viability, T/C (compound 0.1 µM) was 114% and 85.9% and 77.6% and the viability, T/C (compound 0.316 µM) was 100% and 90.5% and 92%. For the same molecule, the viability, T/C (compound 1 µM) was 85.9% and 83.8% and 79.2%, the viability, T/C (compound 3.16 µM) was 77.8% and 81.5% and 90.7% and the viability, T/C (compound 10 µM) was 12.6% and 21.5% and 6.41%. The IC50 (curve of compound) was 5.08 µM and 5.79 µM and 5.34 µM.
`C=CC(=O)N1CCN(c2nc(=O)n(-c3c(C)ccnc3C(C)C)c3nc(-c4c(O)cccc4F)c(F)cc23)C(C)C1` (configuration not stated) was tested, and the viability, T/C (compound 0.0316 µM) was 127% and 82.1% and 87.4%, the viability, T/C (compound 0.1 µM) was 72.6% and 95.5% and 105% and the viability, T/C (compound 0.316 µM) was 121% and 63.8% and 132%. The viability, T/C (compound 1 µM) was 101% and 104% and 100%, the viability, T/C (compound 3.16 µM) was 102% and 93.9% and 110% and the viability, T/C (compound 10 µM) was 120% and 102% and 100%. The IC50 (curve of compound) was > 10 µM.
For `CC1COCCN1c1cc(-c2ccnn2C)c2ccnc(-c3ccn[nH]3)c2n1` (configuration not stated), the viability, T/C (compound 0.0316 µM) was 68% and 74.9% and 58.3%, the viability, T/C (compound 0.1 µM) was 37.9% and 28.1% (2×) and the viability, T/C (compound 0.316 µM) was 24.9% and 25.2% and 20.4%. For the same molecule, the viability, T/C (compound 1 µM) was 17.2% and 25.2% and 29.2%, the viability, T/C (compound 3.16 µM) was 15.5% and 20.5% and 13.3% and the viability, T/C (compound 10 µM) was 10.3% and 16% and 14.4%. For the same molecule, the IC50 (curve of compound) was 0.064 µM and 0.0587 µM and 0.0437 µM.
For `Cn1ncnc1[C@H]1c2n[nH]c(=O)c3cc(F)cc(c23)N[C@@H]1c1ccc(F)cc1`, the viability, T/C (compound 0.000316 µM) was 118% and 108% and 103%, the viability, T/C (compound 0.001 µM) was 82.7% and 80.6% and 106% and the viability, T/C (compound 0.00316 µM) was 69.9% and 79.6% and 106%. For the same molecule, the viability, T/C (compound 0.01 µM) was 104% and 80% and 82.1%, the viability, T/C (compound 0.0316 µM) was 87.1% and 53.5% and 66.7% and the viability, T/C (compound 0.1 µM) was 65.3% and 44.1% and 65.5%. The IC50 (curve of compound) was > 0.1 µM and 0.0619 µM.
